This is an account of results in US20230085307A1, “PYRIDAZINONE COMPOUND AND HERBICIDE” (NISSAN CHEMICAL CORPORATION, priority 2019, published 2023).

Experiment [1] has as its system oval-leafed pondweed. In words: Test Example 2: herbicidal activity, application during weed generation under submerged conditions (Table 17, symbol C). The class given is in vivo, oval-leafed pondweed (Monochoria vaginalis). The conditions noted are these: AAH 320 g/ha; application during weed generation, submerged conditions. In outline: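 Steps: fill Wagner pots with alluvial soil; add water to give 4 cm depth; sow the species mixed; grow under glass at 25–30° C.; at 1–2 leaves apply water-diluted emulsion formulation to the water surface at a fixed herbicide amount; score after 3 weeks.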

Experiment [2] relates to green foxtail. In words: Test Example 5: herbicidal effect by foliage application, plastic box (Table 20, symbol G). The class given is in vivo, green foxtail (Setaria viridis). The conditions noted are these: foliage application, AAH 320 g/ha, three weeks after application. In outline:
(§1)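 Plants were sown into sterilized diluvial soil under about 1.5 cm cover and kept in a greenhouse at 25° C. to 30° C. Fourteen days on, foliage received an even spray of the diluted emulsion. Herbicidal or crop effect was judged three weeks afterwards.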

The subject of experiment [3] is velvetleaf. In words: Test Example 5: herbicidal effect by foliage application, plastic box (Table 20, symbol M). It is filed as in vivo, velvetleaf (Abutilon theophrasti). The conditions noted are these: foliage application, AAH 320 g/ha, three weeks after application. In outline:
as §1

In experiment [4] the test system is blackgrass. In words: Test Example 4: herbicidal effect by soil treatment (Table 19, symbol J). It is filed as in vivo, blackgrass (Alopecurus myosuroides). The conditions noted are these: for J: blackgrass, herbicidal effect rating: AAH 320 g/ha. A digest of the protocol: (§2)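 Pre-emergence style soil spray: seeds under ~1.5 cm sterilized diluvial soil received a uniform coat of emulsion diluted to the predetermined herbicide amount. Greenhouse 25–30° C; readout at week three on previously defined criteria.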

The subject of experiment [5] is persian speedwell. Kind of experiment: Test Example 4: herbicidal effect by soil treatment (Table 19, symbol R). The conditions noted are these: for R: persian speedwell, herbicidal effect rating: AAH 320 g/ha. The class given is in vivo, Persian speedwell (Veronica persica). In outline:
as §2

The test system of experiment [6] is Chinese sprangletop. In words: Test Example 3: herbicidal effect by foliage application, Wagner pot (Table 18, symbol D). It is filed as in vivo, chinese sprangletop (Leptochloa chinensis). The conditions noted are these: 320 g/ha. A digest of the protocol: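 Plants were sown in alluvial soil held under 0.1–0.5 cm standing water and grown 14 days in a greenhouse at 25–30 °C. An emulsifiable formulation, water-diluted to the set dose, was then sprayed onto the foliage, and effects were scored three weeks later using previously defined criteria.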

Experiment [7] deals with chickweed. Kind of experiment: Test Example 5: herbicidal effect by foliage application, plastic box (Table 20, symbol P). It is filed as in vivo, common chickweed (Stellaria media). The conditions noted are these: foliage application, AAH 320 g/ha, three weeks after application. In outline: as §1
The test system of experiment [8] is Japanese bulrush. In words: Test Example 1: herbicidal activity, application before weed generation under submerged conditions (Table 16, symbol B). It is filed as in vivo, Japanese bulrush (Schoenoplectus juncoides). The conditions noted are these: 320 g/ha applied herbicide. In outline:
(§3)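 Alluvial soil was flooded to 4 cm depth, weed seeds were sown mixed and 2.5-leaf rice seedlings were transplanted. On sowing day, the compound's emulsion, diluted in water to a set dose, was applied to the water surface. Plants grew at 25–30 °C and were scored 0–5 after three weeks.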

In experiment [9] the test system is late watergrass. In words: Test Example 1: herbicidal activity, application before weed generation under submerged conditions (Table 16, symbol A). The conditions noted are these: 320 g/ha applied herbicide. The class given is in vivo, late watergrass (Echinochloa oryzicola). A digest of the protocol:
as §3

For experiment [10], the system named is windgrass. In words: Test Example 4: herbicidal effect by soil treatment (Table 19, symbol L). It is filed as in vivo, windgrass (Apera spica-venti). The conditions noted are these: for L: windgrass, herbicidal effect rating: AAH 320 g/ha. A digest of the protocol: as §2
Experiment [11] deals with oval-leafed pondweed. Kind of experiment: Test Example 1: herbicidal activity, application before weed generation under submerged conditions (Table 16, symbol C). It is filed as in vivo, oval-leafed pondweed (Monochoria vaginalis). The conditions noted are these: 320 g/ha applied herbicide. A digest of the protocol:
as §3

[12] abbreviates: amount of applied herbicide 320 g/ha.

As for `Cc1nn(C)c(=O)c(-c2c(-c3cnc4ccccc4c3)sc3ccccc23)c1O` [1-108], the “herbicidal effect rating, C: oval-leafed pondweed” value (“herbicidal effect rating, C” below) in [1] is 0 (Herbicidal rate of 5% or less (almost no effect)). Besides, the “G: green foxtail, herbicidal effect” value in experiment [2] was 0 (Herbicidal rate of 5% or less (almost no effect)). Further, in experiment [3], the “M: velvetleaf, herbicidal effect” value was 1 (Herbicidal rate of 5% or more and less than 20%). The “herbicidal effect rating, J: blackgrass” value in experiment [4] (setting [12]) is recorded as 0 (Herbicidal rate of 5% or less (almost no effect)). Also, the “herbicidal effect rating, R: persian speedwell” value in [5] (setting [12]) is 0 (Herbicidal rate of 5% or less (almost no effect)). Moreover, the “herbicidal effect on D (Chinese sprangletop), rating 0-5” value (from here on “herbicidal effect on D”) in experiment [6] is 3 (Herbicidal rate of 40% or more and less than 70%). In experiment [7], the “P: chickweed, herbicidal effect” value was 2 (Herbicidal rate of 20% or more and less than 40%). The “Herbicidal effect on B: Japanese bulrush (grade 0-5)” value (from here on “Herbicidal effect on B”) in experiment [8] is 2 (Herbicidal rate of 20% or more and less than 40%). For the same compound, the “Herbicidal effect on A: late watergrass (grade 0-5)” value in experiment [9] is 3 (Herbicidal rate of 40% or more and less than 70%). Besides, the “herbicidal effect rating, L: windgrass” value in [10] (setting [12]) is 0 (Herbicidal rate of 5% or less (almost no effect)). Further, in [11], the “Herbicidal effect on C: oval-leafed pondweed (grade 0-5)” value (from here on “Herbicidal effect on C”) is 0 (Herbicidal rate of 5% or less (almost no effect)).

As to `CCCC(=O)Oc1c(C)nn(C)c(=O)c1-c1c(-c2ccc(C(C)C)cc2)sc2ccccc12` [1-126], in experiment [1], the “herbicidal effect rating, C” value was 1 (Herbicidal rate of 5% or more and less than 20%). The “G: green foxtail, herbicidal effect” value in [2] was 2 (Herbicidal rate of 20% or more and less than 40%). Further, the “M: velvetleaf, herbicidal effect” value in experiment [3] was 4 (Herbicidal rate of 70% or more and less than 90%). The “J: blackgrass, herbicidal effect rating” value in experiment [4] is 0 (Herbicidal rate of 5% or less (almost no effect)). Besides, the “R: persian speedwell, herbicidal effect rating” value in [5] is 3 (Herbicidal rate of 40% or more and less than 70%). Moreover, the “herbicidal effect on D” value in experiment [6] is 5 (Herbicidal rate of 90% or more (almost completely withered)). Besides, the “P: chickweed, herbicidal effect” value in [7] is reported as 5 (Herbicidal rate of 90% or more (almost completely withered)). Further, the “Herbicidal effect on B” value in [8] is 3 (Herbicidal rate of 40% or more and less than 70%). Further, in [9], the “Herbicidal effect on A: late watergrass (grade 0-5)” value is 3 (Herbicidal rate of 40% or more and less than 70%). The “L: windgrass, herbicidal effect rating” value in [10] was 0 (Herbicidal rate of 5% or less (almost no effect)). The “Herbicidal effect on C” value in experiment [11] was 3 (Herbicidal rate of 40% or more and less than 70%).

As for `Cc1nn(C)c(=O)c(-c2c(-c3ccc(OCc4ccccc4)cc3)sc3ccccc23)c1O` [1-133], the “herbicidal effect rating, C” value in experiment [1] was 3 (Herbicidal rate of 40% or more and less than 70%). Besides, the “G: green foxtail, herbicidal effect” value in [2] is 5 (Herbicidal rate of 90% or more (almost completely withered)). Besides, in experiment [3], the “M: velvetleaf, herbicidal effect” value is on record as 0 (Herbicidal rate of 5% or less (almost no effect)). The “J: blackgrass, herbicidal effect rating” value in experiment [4] was 0 (Herbicidal rate of 5% or less (almost no effect)). The “R: persian speedwell, herbicidal effect rating” value in experiment [5] was 5 (Herbicidal rate of 90% or more (almost completely withered)). Further, the “herbicidal effect on D” value in experiment [6] is 3 (Herbicidal rate of 40% or more and less than 70%). In experiment [7], the “P: chickweed, herbicidal effect” value is 5 (Herbicidal rate of 90% or more (almost completely withered)). Also, the “Herbicidal effect on B” value in [8] is given as 5 (Herbicidal rate of 90% or more (almost completely withered)). In addition, the “Herbicidal effect on A: late watergrass (grade 0-5)” value in experiment [9] is recorded as 5 (Herbicidal rate of 90% or more (almost completely withered)). Further, the “L: windgrass, herbicidal effect rating” value in [10] is listed as 0 (Herbicidal rate of 5% or less (almost no effect)). Also, the “Herbicidal effect on C” value in [11] was 3 (Herbicidal rate of 40% or more and less than 70%).

Turning to `Cc1nn(C)c(=O)c(-c2c(-c3ccc(OCC4CC4(F)F)cc3)sc3ccccc23)c1O` (stereo not drawn) [1-138], the “herbicidal effect rating, C” value in [1] is 0 (Herbicidal rate of 5% or less (almost no effect)). Also, in [2], the “G: green foxtail, herbicidal effect” value was 3 (Herbicidal rate of 40% or more and less than 70%). In addition, the “M: velvetleaf, herbicidal effect” value in [3] is 4 (Herbicidal rate of 70% or more and less than 90%). Also, the “J: blackgrass, herbicidal effect rating” value in experiment [4] was 3 (Herbicidal rate of 40% or more and less than 70%). In addition, the “R: persian speedwell, herbicidal effect rating” value in experiment [5] was 5 (Herbicidal rate of 90% or more (almost completely withered)). Also, the “herbicidal effect on D” value in experiment [6] was 3 (Herbicidal rate of 40% or more and less than 70%). The “P: chickweed, herbicidal effect” value in experiment [7] is given as 5 (Herbicidal rate of 90% or more (almost completely withered)). Moreover, the “Herbicidal effect on B” value in experiment [8] is 3 (Herbicidal rate of 40% or more and less than 70%). Also, the “Herbicidal effect on A: late watergrass (grade 0-5)” value in experiment [9] was 3 (Herbicidal rate of 40% or more and less than 70%). Moreover, the “L: windgrass, herbicidal effect rating” value in experiment [10] is reported as 0 (Herbicidal rate of 5% or less (almost no effect)). For the same compound, in experiment [11], the “Herbicidal effect on C” value was 3 (Herbicidal rate of 40% or more and less than 70%).

As for `CSCCOc1ccc(-c2sc3ccccc3c2-c2c(O)c(C)nn(C)c2=O)cc1` [1-141], the “herbicidal effect rating, C” value in [1] is given as 0 (Herbicidal rate of 5% or less (almost no effect)). For the same compound, the “G: green foxtail, herbicidal effect” value in experiment [2] is given as 5 (Herbicidal rate of 90% or more (almost completely withered)). Further, the “M: velvetleaf, herbicidal effect” value in [3] was 4 (Herbicidal rate of 70% or more and less than 90%). The “J: blackgrass, herbicidal effect rating” value in experiment [4] was 0 (Herbicidal rate of 5% or less (almost no effect)). For the same compound, in [5], the “R: persian speedwell, herbicidal effect rating” value was 5 (Herbicidal rate of 90% or more (almost completely withered)). Also, in experiment [6], the “herbicidal effect on D” value is 3 (Herbicidal rate of 40% or more and less than 70%). For the same compound, in [7], the “P: chickweed, herbicidal effect” value is 5 (Herbicidal rate of 90% or more (almost completely withered)). In addition, the “Herbicidal effect on B” value in experiment [8] is 0 (Herbicidal rate of 5% or less (almost no effect)). The “Herbicidal effect on A: late watergrass (grade 0-5)” value in experiment [9] is 3 (Herbicidal rate of 40% or more and less than 70%). Besides, the “L: windgrass, herbicidal effect rating” value in experiment [10] was 3 (Herbicidal rate of 40% or more and less than 70%). Also, the “Herbicidal effect on C” value in experiment [11] is listed as 0 (Herbicidal rate of 5% or less (almost no effect)).

Turning to `Cc1nn(C)c(=O)c(-c2c(-c3ccc(OCC4CC4)cc3)sc3ccccc23)c1O` [1-142], in [1], the “herbicidal effect rating, C” value is on record as 0 (Herbicidal rate of 5% or less (almost no effect)). Moreover, the “G: green foxtail, herbicidal effect” value in experiment [2] is 2 (Herbicidal rate of 20% or more and less than 40%). Besides, in [3], the “M: velvetleaf, herbicidal effect” value is 1 (Herbicidal rate of 5% or more and less than 20%). Moreover, the “J: blackgrass, herbicidal effect rating” value in experiment [4] is 0 (Herbicidal rate of 5% or less (almost no effect)). The “R: persian speedwell, herbicidal effect rating” value in experiment [5] is on record as 5 (Herbicidal rate of 90% or more (almost completely withered)). The “herbicidal effect on D” value in experiment [6] is 1 (Herbicidal rate of 5% or more and less than 20%). Further, in [7], the “P: chickweed, herbicidal effect” value was 5 (Herbicidal rate of 90% or more (almost completely withered)). Moreover, in experiment [8], the “Herbicidal effect on B” value was 5 (Herbicidal rate of 90% or more (almost completely withered)). Also, in [9], the “Herbicidal effect on A: late watergrass (grade 0-5)” value is 3 (Herbicidal rate of 40% or more and less than 70%). Further, the “L: windgrass, herbicidal effect rating” value in experiment [10] was 0 (Herbicidal rate of 5% or less (almost no effect)). Further, in [11], the “Herbicidal effect on C” value is recorded as 5 (Herbicidal rate of 90% or more (almost completely withered)).
